Assay results published in patent US11639350B2, “Heteroaryldihydropyrimidine derivatives and methods of treating hepatitis B infections” (Janssen Pharmaceutica NV, priority 2018, dated 2023).
Like-named read-outs stand apart in the source and are kept apart here.

Tests used:
HBV = HBV inhibitory activity: HBV DNA in the culture medium of HepG2.2.15 cells by q-PCR; format: cell-based; conditions: Hepatitis B virus, HepG2.2.15, 144 h
How it was run: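 Supernatant HBV DNA quantified by q-PCR after a 6-day compound exposure, with one mid-course medium change, of HepG2.2.15 cells (stably integrated HBV; 40,000 per well, 2% FBS). Eight-point 3-fold series topped at 10 μM for antiviral EC50; separate plates of 5,000 cells per well with 100 μM top give CC50.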

[1] = Cytotoxicity determination in HepG2.2.15 cells (CCK-8); format: cell-based; conditions: human, 6 days of compound treatment, CCK-8, highest concentration 100 μM
How it was run: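 CC50 is from CCK-8 absorbance (450 nm, 630 nm reference) after 2.5 h with reagent. Before that, compounds were applied for six days, top concentration 100 μM, eight threefold dilutions, one mid-course medium change, to stably HBV-integrated HepG2.2.15 cells plated at 5,000/well in 2% FBS.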

[2] = HepG2.2.15 cells, 6 days of compound treatment, HBV DNA in culture medium by q-PCR, highest concentration 10 μM, read-out: EC50

SMILES | EC50 (HBV; [2]) [nM] | CC50 at 6 days [1] [nM] | EC50 (HBV) [nM]
COC(=O)C1=C(C2CCN(S(=O)(=O)CC(=O)O)CC2)NC(c2nccs2)=NC1c1ccc(F)cc1Cl (stereo not shown) [Compound 107, 2-((4-(6-(2-Chloro-4-fluorophenyl)-5-(methoxycarbonyl)-2-(thiazol-2-yl)-3,6-dihydropyrimidin-4-yl)piperidin-1-yl)sulfonyl)acetic Acid] | 248 | 51400 | –
COC(=O)C1=C(C2CCN(S(=O)(=O)[C@H]3C[C@H](CO)C3)CC2)NC(c2nccs2)=N[C@@H]1c1ccc(F)cc1Cl [Compound 357A, (trans)-Methyl 4-(2-chloro-4-fluorophenyl)-6-(1-((3-(hydroxymethyl)cyclobutyl)sulfonyl)piperidin-4-yl)-2-(thiazol-2-yl)-1,4-dihydropyrimidine-5-carboxylate] | 37 | 13600 | –
COC(=O)C1=C(C2CCN(C(N)=O)CC2)NC(c2nccs2)=NC1c1ccc(F)cc1Cl (stereo not shown) [Compound 303, Methyl 6-(1-carbamoylpiperidin-4-yl)-4-(2-chloro-4-fluorophenyl)-2-(thiazol-2-yl)-1,4-dihydropyrimidine-5-carboxylate] | 54 | > 100000 | –
COC(=O)C1=C(C2CCN(C(=O)C3(C(=O)OC)CC3)CC2)NC(c2nccs2)=NC1c1ccc(F)cc1Cl (stereo not shown) [Compound 108, Methyl-4-(2-chloro-4-fluorophenyl)-6-(1-(1-(methoxycarbonyl)-cyclopropane-1-carbonyl)piperidin-4-yl)-2-(thiazol-2-yl)-1,4-dihydropyrimidine-5-carboxylate] | 77 | 26900 | –
COC(=O)C1=C([C@H]2C[C@@H](NS(C)(=O)=O)C2)NC(c2nccs2)=NC1c1ccc(F)cc1Cl (single isomer, unassigned) [Compound 206D, (cis)-Methyl 4-(2-chloro-4-fluorophenyl)-6-(3-(methylsulfonamido)cyclobutyl)-2-(thiazol-2-yl)-1,4-dihydropyrimidine-5-carboxylate] | 389 | 39200 | –
COCCS(=O)(=O)N1CCC(C2=C(C(=O)OC)C(c3ccc(F)cc3Cl)N=C(c3nccs3)N2)C1 (single isomer, unassigned) [Compound 365, Methyl 4-(2-chloro-4-fluorophenyl)-6-((R*)-1-((2-methoxyethyl)sulfonyl)pyrrolidin-3-yl)-2-(thiazol-2-yl)-1,4-dihydropyrimidine-5-carboxylate] | 61 | 21800 | –
COC(=O)CCS(=O)(=O)N1CCC(C2=C(C(=O)OC)C(c3cccc(F)c3Cl)N=C(c3nccs3)N2)CC1 (single isomer, unassigned) [Compound 113Y, 4-(2-Chloro-3-fluoro-phenyl)-6-[1-(2-methoxycarbonyl-ethane-sulfonyl)-piperidin-4-yl]-2-thiazol-2-yl-1,4-dihydro-pyrimidine-5-carboxylic Acid Methyl Ester] | 966 | 11800 | –
COC(=O)C1=C(C2COC2)NC(c2nccs2)=NC1c1ccc(F)cc1Cl (racemic) [Compound 217, Methyl 4-(2-chloro-4-fluorophenyl)-6-(oxetan-3-yl)-2-(thiazol-2-yl)-1,4-dihydropyrimidine-5-carboxylate] | 511 | 29600 | –
CCNS(=O)(=O)N1CC(C2=C(C(=O)OC)C(c3ccc(F)cc3Cl)N=C(c3nccs3)N2)C1 (stereo not shown) [Compound 81, 4-(2-Chloro-4-fluoro-phenyl)-6-(1-ethylsulfamoyl-azetidin-3-yl)-2-thiazol-2-yl-1,4-dihydro-pyrimidine-5-carboxylic Acid Methyl Ester] | 119 | 10500 | –
COC(=O)C1=C(C2CCN(S(C)(=O)=O)CC2)NC(c2c(F)cc(F)cc2F)=NC1c1ccc(F)cc1Cl (single isomer, unassigned) [Compound 54A, Methyl 4-(2-chloro-4-fluorophenyl)-6-(1-(methylsulfonyl)piperidin-4-yl)-2-(2,4,6-trifluorophenyl)-1,4-dihydropyrimidine-5-carboxylate] | 19 | 31200 | –
CNS(=O)(=O)N1CCC(C2=C(C(=O)OC)C(c3cccc(F)c3Cl)N=C(c3nccs3)N2)CC1 (single isomer, unassigned) [Compound 115B, 4-(2-Chloro-3-fluoro-phenyl)-6-(1-methylsulfamoyl-piperidin-4-yl)-2-thiazol-2-yl-1,4-dihydro-pyrimidine-5-carboxylic Acid Methyl Ester] | 342 | 19100 | –
COC(=O)C1=C(C2CCN(S(=O)(=O)c3cn[nH]c3)CC2)NC(c2nccs2)=NC1c1cccc(F)c1Cl (stereo not shown) [Compound 158A, methyl 6-(1-((1H-pyrazol-4-yl)sulfonyl)piperidin-4-yl)-4-(2-chloro-3-fluorophenyl)-2-(thiazol-2-yl)-1,4-dihydropyrimidine-5-carboxylate] | 9 | 12700 | –
COCCNS(=O)(=O)[C@H]1CC[C@H](C2=C(C(=O)OC)C(c3ccc(F)c(F)c3Cl)N=C(c3nccs3)N2)CC1 (single isomer, unassigned) [Compound 359D, (trans)-methyl 4-(2-chloro-3,4-difluorophenyl)-6-(4-(N-(2-methoxyethyl)sulfamoyl)cyclohexyl)-2-(thiazol-2-yl)-1,4-dihydropyrimidine-5-carboxylate] | 5 | 12000 | –
CCOC(=O)C1=C(C2CCN(S(=O)(=O)[C@H]3C[C@@H](C(=O)O)C3)CC2)NC(c2nccs2)=NC1c1ccc(F)c(F)c1Cl (relative stereo) [Compound 370D, (cis)-3-((4-(6-(2-Chloro-3,4-difluorophenyl)-5-(ethoxycarbonyl)-2-(thiazol-2-yl)-3,6-dihydropyrimidin-4-yl)piperidin-1-yl)sulfonyl)cyclobutanecarboxylic Acid] | 40 | 26300 | –
COC(=O)C1=C(C2CCN(S(=O)(=O)C[C@H]3CC[C@H](C(=O)O)CC3)CC2)NC(c2nccs2)=NC1c1ccc(F)c(F)c1Cl (stereo partly drawn) [Compound 425, trans-4-(((4-(6-(2-chloro-3,4-difluorophenyl)-5-(methoxycarbonyl)-2-(thiazol-2-yl)-3,6-dihydropyrimidin-4-yl)piperidinyl)sulfonyl)methyl)cyclohexane-1-carboxylic Acid] | 6 | 13300 | –
COC(=O)C1=C(C2CCN(C)C2)NC(c2nccs2)=NC1c1ccc(F)cc1Cl (single isomer, unassigned) [Compound 207C, methyl 4-(2-chloro-4-fluorophenyl)-6-(−1-methylpyrrolidin-3-yl)-2-(thiazol-2-yl)-1,4-dihydropyrimidine-5-carboxylate] | 753 | > 20000 | –
COC(=O)C1=C(C2CCN(S(=O)(=O)c3cnn(CCCCC(=O)O)c3)CC2)NC(c2nccs2)=NC1c1ccc(F)cc1Cl (stereo not shown) [Compound 471, 5-(4-((4-(6-(2-Chloro-4-fluorophenyl)-5-(methoxycarbonyl)-2-(thiazol-2-yl)-3,6-dihydropyrimidin-4-yl)piperidin-1-yl)sulfonyl)-1H-pyrazol-1-yl)pentanoic Acid] | 53 | 32300 | –
COC(=O)C1=C(C2CCN(S(=O)(=O)CCOCCOCCO)CC2)NC(c2nccs2)=NC1c1ccc(F)cc1Cl (stereo not shown) [Compound 468, Methyl 4-(2-chloro-4-fluorophenyl)-6-(1-((2-(2-(2-hydroxyethoxy)ethoxy)ethyl)sulfonyl)piperidin-4-yl)-2-(thiazol-2-yl)-1,4-dihydropyrimidine-5-carboxylate] | – | 42900 | 9
CCOC(=O)C1=C([C@@H]2C[C@H](NC(C)=O)CO2)NC(c2nccs2)=NC1c1cccc(F)c1Cl (relative stereo) [Compound 262, (cis)-Ethyl 6-(4-acetamidotetrahydrofuran-2-yl)-4-(2-chloro-3-fluorophenyl)-2-(thiazol-2-yl)-1,4-dihydropyrimidine-5-carboxylate] | 400 | 75800 | –
CCOC(=O)C1=C(C2CCCCC2)NC(c2nccs2)=NC1c1ccc(F)cc1Cl (single isomer, unassigned) [Compound 47A, Ethyl 4-(2-chloro-4-fluorophenyl)-6-cyclohexyl-2-(thiazol-2-yl)-1,4-dihydro-pyrimidine-5-carboxylate] | 276 | 30900 | –
COC(=O)C1=C(C2CCN(S(=O)(=O)C[C@H]3CC[C@H](C(=O)O)CC3)CC2)NC(c2nccs2)=NC1c1ccc(F)cc1Cl (stereo partly drawn) [Compound 422, trans-4-(((4-(6-(2-chloro-4-fluorophenyl)-5-(methoxycarbonyl)-2-(thiazol-2-yl)-3,6-dihydropyrimidin-4-yl)piperidinyl)sulfonyl)methyl)cyclohexane-1-carboxylic Acid] | 27 | 26900 | –
COC(=O)C1=C(C2CCN(S(=O)(=O)[C@H]3C[C@H](C(=O)O)C3)CC2)NC(c2nccs2)=NC1c1ccc(F)c(F)c1Cl (single isomer, unassigned) [Compound 232B, (trans)-3-((4-(6-(2-Chloro-3,4-difluorophenyl)-5-(methoxycarbonyl)-2-(thiazol-2-yl)-3,6-dihydropyrimidin-4-yl)piperidin-1-yl)sulfonyl)cyclobutanecarboxylic Acid] | 57 | 60000 | –
COC(=O)C1=C(C2CCN(S(=O)(=O)c3cn(C)cn3)CC2)NC(c2nccs2)=NC1c1ccc(F)cc1Cl (stereo not shown) [Compound 201A, Methyl 4-(2-chloro-4-fluorophenyl)-6-(1-((1-methyl-1H-imidazol-4-yl)sulfonyl)piperidin-4-yl)-2-(thiazol-2-yl)-1,4-dihydropyrimidine-5-carboxylate] | 53 | 15700 | –
